Experimental data: US20040044055A1, “N-alkoxlyalkyl-substituted benzimidazoles and the use thereof as an agent against parastic protozoans” (priority 2000, published 2004)

Assays:
Assay type in all cases: in vivo
Eimeria tenella = assay: Cage experiment on coccidiosis/chicks; settings: chicks; for Efficacy against Eimeria tenella: 3rd figure of cell
Protocol: (§1) 8- to 12- day-old male chicks (e.g. LSL Brinkschulte/Senden) which have been reared coccidia-free receive the compounds according to the invention (test substances) in the concentration indicated in ppm with the feed from 3 days before (day −3) infection (=a.i.) until 8 (9) days after infection (=p.i.). 3 animals are kept in each cage. One or more groups of this type are employed per dose. Infection is carried out by means of a stomach tube directly into the crop with approximately 100,000 sporulated oocysts of Eimeria acervulina and with approximately 30,000 oocysts each of E. maxima and 40,000 sporulated oocysts of E. tenella. These are highly virulent strains. The exact infection dose is adjusted so that, if possible, one of three experimentally infected untreated chicks dies due to the infection. For assessment of the efficacy, the following criteria are taken into account: weight increase from the start of the experiment to the end of the experiment, death rate due to infection, macroscopic assessment of the faeces with respect to diarrhoea and excretion of blood on days 5 and 7 p.i. (assessment 0 to 6), macroscopic assessment of the intestinal mucosa, in particular of the appendices (assessment 0 to 6) and the oocyst excretion as well as the proportion (in %) of the oocysts sporulating in the course of 24 hours. The number of oocysts in the faeces was determined with the aid of a McMaster counting chamber (see Engelbrecht and coworkers “Parasitologische Arbeitsmethoden in Medizin and Veterinärmedizin” [Parasitological Working Methods in Medicine and Veterinary Medicine], Akademie-Verlag, Berlin (1965)). The individual findings are related to the untreated non-infected control groups and a total score is calculated (cf. A. Haberkorn (1986), pp. 263 to 270 in Research in Avian Coccidiosis ed L. R. McDougald, L. P. Joyner, P. L. Long, Proceedings of the Georgia Coccidiosis Conference, Nov. 18-20, 1985, Athens/Ga. USA).
(§2) In the column “ppm”, the concentration of the active compound employed in the feed is indicated in ppm.
(§3) In the column “mortality”, the percentage of the dead animals is indicated under % and the number of dead animals/animals employed in the experiment is indicated under n.
(§4) In the column “weight % of not inf. control”, the ratio of the weight of the treated animals to the weight of the non-infected control group is indicated.
(§5) In the columns “dropping scores”, “lesion score” and “oocyst control”, individual details of the action are given.
(§6) In the column “% efficacy”, the total score is assessed; 0% means no action, 100% means full action.

Eimeria maxima = assay: Cage experiment on coccidiosis/chicks; settings: chicks; for Efficacy against Eimeria maxima: 2nd figure of cell
Protocol: as §1, §2, §3, §4, §5, §6

Eimeria acervulina = assay: Cage experiment on coccidiosis/chicks; settings: chicks; for Efficacy against Eimeria acervulina: 1st figure of cell
Protocol: as §1, §2, §3, §4, §5, §6

[1] = system: Eimeria acervulina, Eimeria maxima and Eimeria tenella; assay: Cage experiment on coccidiosis/chicks, mixed experimental infection; settings: chicks; for dropping scores / lesion score: assessment 0 to 6; for mortality n: dead animals/animals employed; for % efficay tot.: total score
Protocol: as §1, §2, §3, §4, §5, §6

In the case of `CCOCn1c(C(F)(F)F)nc2cc(OC(F)(F)F)c(C(F)(F)F)cc21` [Ex. 1], the “Efficacy against Eimeria tenella” value (Eimeria tenella; 1 ppm in feed) is reported as 1, the “Efficacy against Eimeria tenella” value (Eimeria tenella; 2.5 ppm in feed) is reported as 2 and the “Efficacy against Eimeria tenella” value (Eimeria tenella; 5 ppm in feed) is reported as 2. The “Efficacy against Eimeria tenella” value (Eimeria tenella; 7.5 ppm in feed) was 2, the “Efficacy against Eimeria tenella” value (Eimeria tenella; 10 ppm in feed) was 1 and the “Efficacy against Eimeria maxima” value (Eimeria maxima; 1 ppm in feed) was 1. For the same compound, the “Efficacy against Eimeria maxima” value (Eimeria maxima; 2.5 ppm in feed) was 2, the “Efficacy against Eimeria maxima” value (Eimeria maxima; 5 ppm in feed) was 2 and the “Efficacy against Eimeria maxima” value (Eimeria maxima; 7.5 ppm in feed) was 2. For the same compound, the “Efficacy against Eimeria maxima” value (Eimeria maxima; 10 ppm in feed) was 2, the “Efficacy against Eimeria acervulina” value (Eimeria acervulina; 1 ppm in feed) was 0 and the “Efficacy against Eimeria acervulina” value (Eimeria acervulina; 2.5 ppm in feed) was 2. The “Efficacy against Eimeria acervulina” value (Eimeria acervulina; 5 ppm in feed) was 2, the “Efficacy against Eimeria acervulina” value (Eimeria acervulina; 7.5 ppm in feed) was 2 and the “Efficacy against Eimeria acervulina” value (Eimeria acervulina; 10 ppm in feed) was 2.

For `CC(C)COCn1c(C(F)(F)F)nc2cc(OC(F)(F)F)c(C(F)(F)F)cc21` [Ex. 2], the mortality % ([1]; Ex. 2 2.5 ppm in feed) was 33%, the “oocyst in % of inf. control tot.” value ([1]; Ex. 2 2.5 ppm in feed) was over 100% and the “weight % of not inf. control” value ([1]; Ex. 2 2.5 ppm in feed) was 33%. The dropping scores ([1]; Ex. 2 2.5 ppm in feed) was 6, the lesion score ([1]; Ex. 2 2.5 ppm in feed) was 6 and the mortality n ([1]; Ex. 2 2.5 ppm in feed) was 1/3. For the same compound, the “% efficay tot.” value ([1]; Ex. 2 2.5 ppm in feed) was 2%, the mortality % ([1]; Ex. 2 5 ppm in feed) was 33% and the “oocyst in % of inf. control tot.” value ([1]; Ex. 2 5 ppm in feed) was 73%. The “weight % of not inf. control” value ([1]; Ex. 2 5 ppm in feed) was 65%, the dropping scores ([1]; Ex. 2 5 ppm in feed) was 6 and the lesion score ([1]; Ex. 2 5 ppm in feed) was 6. For the same compound, the mortality n ([1]; Ex. 2 5 ppm in feed) was 1/3, the “% efficay tot.” value ([1]; Ex. 2 5 ppm in feed) was 37% and the mortality % ([1]; Ex. 2 7.5 ppm in feed) was 33%. For the same compound, the “oocyst in % of inf. control tot.” value ([1]; Ex. 2 7.5 ppm in feed) was 41%, the “weight % of not inf. control” value ([1]; Ex. 2 7.5 ppm in feed) was 74% and the dropping scores ([1]; Ex. 2 7.5 ppm in feed) was 6. The lesion score ([1]; Ex. 2 7.5 ppm in feed) was 6, the mortality n ([1]; Ex. 2 7.5 ppm in feed) was 1/3 and the “% efficay tot.” value ([1]; Ex. 2 7.5 ppm in feed) was 36%. For the same compound, the mortality % ([1]; Ex. 2 10 ppm in feed) was 0%, the “oocyst in % of inf. control tot.” value ([1]; Ex. 2 10 ppm in feed) was 83% and the “weight % of not inf. control” value ([1]; Ex. 2 10 ppm in feed) was 69%. The dropping scores ([1]; Ex. 2 10 ppm in feed) was 6, the lesion score ([1]; Ex. 2 10 ppm in feed) was 6 and the mortality n ([1]; Ex. 2 10 ppm in feed) was 0/3. The “% efficay tot.” value ([1]; Ex. 2 10 ppm in feed) was 17%, the “Efficacy against Eimeria tenella” value (Eimeria tenella; 1 ppm in feed) was 1 and the “Efficacy against Eimeria tenella” value (Eimeria tenella; 2.5 ppm in feed) was 1. The “Efficacy against Eimeria tenella” value (Eimeria tenella; 5 ppm in feed) was 0, the “Efficacy against Eimeria tenella” value (Eimeria tenella; 7.5 ppm in feed) was 1 and the “Efficacy against Eimeria tenella” value (Eimeria tenella; 10 ppm in feed) was 1. For the same compound, the “Efficacy against Eimeria tenella” value (Eimeria tenella; 25 ppm in feed) was 2, the “Efficacy against Eimeria tenella” value (Eimeria tenella; 50 ppm in feed) was 2 and the “oocyst in % of inf. control ten.” value (Eimeria tenella; Ex. 2 2.5 ppm in feed) was over 100%. For the same compound, the “oocyst in % of inf. control ten.” value (Eimeria tenella; Ex. 2 5 ppm in feed) was 98%, the “oocyst in % of inf. control ten.” value (Eimeria tenella; Ex. 2 7.5 ppm in feed) was 23% and the “oocyst in % of inf. control ten.” value (Eimeria tenella; Ex. 2 10 ppm in feed) was 65%. The “Efficacy against Eimeria maxima” value (Eimeria maxima; 1 ppm in feed) was 1, the “Efficacy against Eimeria maxima” value (Eimeria maxima; 2.5 ppm in feed) was 1 and the “Efficacy against Eimeria maxima” value (Eimeria maxima; 5 ppm in feed) was 1. For the same compound, the “Efficacy against Eimeria maxima” value (Eimeria maxima; 7.5 ppm in feed) was 1, the “Efficacy against Eimeria maxima” value (Eimeria maxima; 10 ppm in feed) was 2 and the “Efficacy against Eimeria maxima” value (Eimeria maxima; 25 ppm in feed) was 2. The “Efficacy against Eimeria maxima” value (Eimeria maxima; 50 ppm in feed) was 2, the “oocyst in % of inf. control max.” value (Eimeria maxima; Ex. 2 2.5 ppm in feed) was over 100% and the “oocyst in % of inf. control max.” value (Eimeria maxima; Ex. 2 5 ppm in feed) was 0%. The “oocyst in % of inf. control max.” value (Eimeria maxima; Ex. 2 7.5 ppm in feed) was 0%, the “oocyst in % of inf. control max.” value (Eimeria maxima; Ex. 2 10 ppm in feed) was over 100% and the “Efficacy against Eimeria acervulina” value (Eimeria acervulina; 1 ppm in feed) was 1. The “Efficacy against Eimeria acervulina” value (Eimeria acervulina; 2.5 ppm in feed) was 1, the “Efficacy against Eimeria acervulina” value (Eimeria acervulina; 5 ppm in feed) was 0 and the “Efficacy against Eimeria acervulina” value (Eimeria acervulina; 7.5 ppm in feed) was 1. For the same compound, the “Efficacy against Eimeria acervulina” value (Eimeria acervulina; 10 ppm in feed) was 1, the “Efficacy against Eimeria acervulina” value (Eimeria acervulina; 25 ppm in feed) was 2 and the “Efficacy against Eimeria acervulina” value (Eimeria acervulina; 50 ppm in feed) was 2. The “oocyst in % of inf. control ac.” value (Eimeria acervulina; Ex. 2 2.5 ppm in feed) was over 100%, the “oocyst in % of inf. control ac.” value (Eimeria acervulina; Ex. 2 5 ppm in feed) was 54% and the “oocyst in % of inf. control ac.” value (Eimeria acervulina; Ex. 2 7.5 ppm in feed) was 56%. The “oocyst in % of inf. control ac.” value (Eimeria acervulina; Ex. 2 10 ppm in feed) was 93%.

For `CCOCn1c(C(F)(F)F)nc2c(C(F)(F)F)cc(OC(F)(F)F)cc21` [Ex. 3], the “Efficacy against Eimeria tenella” value (Eimeria tenella; 1 ppm in feed) was 0, the “Efficacy against Eimeria tenella” value (Eimeria tenella; 2.5 ppm in feed) was 1 and the “Efficacy against Eimeria tenella” value (Eimeria tenella; 5 ppm in feed) was 2. For the same compound, the “Efficacy against Eimeria tenella” value (Eimeria tenella; 7.5 ppm in feed) was 2, the “Efficacy against Eimeria tenella” value (Eimeria tenella; 10 ppm in feed) was 1 and the “Efficacy against Eimeria maxima” value (Eimeria maxima; 1 ppm in feed) was 0. For the same compound, the “Efficacy against Eimeria maxima” value (Eimeria maxima; 2.5 ppm in feed) was 2, the “Efficacy against Eimeria maxima” value (Eimeria maxima; 5 ppm in feed) was 2 and the “Efficacy against Eimeria maxima” value (Eimeria maxima; 7.5 ppm in feed) was 2. For the same compound, the “Efficacy against Eimeria maxima” value (Eimeria maxima; 10 ppm in feed) was 1, the “Efficacy against Eimeria acervulina” value (Eimeria acervulina; 1 ppm in feed) was 0 and the “Efficacy against Eimeria acervulina” value (Eimeria acervulina; 2.5 ppm in feed) was 2. The “Efficacy against Eimeria acervulina” value (Eimeria acervulina; 5 ppm in feed) was 2, the “Efficacy against Eimeria acervulina” value (Eimeria acervulina; 7.5 ppm in feed) was 2 and the “Efficacy against Eimeria acervulina” value (Eimeria acervulina; 10 ppm in feed) was 1.

In the case of `CO[C@@H]1[C@@H](OC)[C@H](C)[C@@](O)(CC(=O)O)O[C@H]1[C@H](C)[C@H]1O[C@@]2(CC[C@@](C)([C@H]3CC[C@@](C)([C@@H]4O[C@@H]([C@H]5O[C@](C)(O)[C@H](C)C[C@@H]5C)C[C@@H]4O[C@@H]4C[C@H](OC)[C@@H](OC)[C@H](C)O4)O3)O2)C[C@H](O)[C@H]1C` [MAD, maduramicin, reference compound], the mortality % ([1]; MAD 1 ppm in feed) is reported as 67%, the “oocyst in % of inf. control tot.” value ([1]; MAD 1 ppm in feed) is reported as over 100% and the “weight % of not inf. control” value ([1]; MAD 1 ppm in feed) is reported as 17%. The dropping scores ([1]; MAD 1 ppm in feed) was 6, the lesion score ([1]; MAD 1 ppm in feed) was 6 and the mortality n ([1]; MAD 1 ppm in feed) was 2/3. For the same compound, the “% efficay tot.” value ([1]; MAD 1 ppm in feed) was 0%, the mortality % ([1]; MAD 2 ppm in feed) was 0% and the “oocyst in % of inf. control tot.” value ([1]; MAD 2 ppm in feed) was over 100%. The “weight % of not inf. control” value ([1]; MAD 2 ppm in feed) was 82%, the dropping scores ([1]; MAD 2 ppm in feed) was 2 and the lesion score ([1]; MAD 2 ppm in feed) was 6. For the same compound, the mortality n ([1]; MAD 2 ppm in feed) was 0/3, the “% efficay tot.” value ([1]; MAD 2 ppm in feed) was 29% and the mortality % ([1]; MAD 3 ppm in feed) was 0%. The “oocyst in % of inf. control tot.” value ([1]; MAD 3 ppm in feed) was over 100%, the “weight % of not inf. control” value ([1]; MAD 3 ppm in feed) was 98% and the dropping scores ([1]; MAD 3 ppm in feed) was 0. The lesion score ([1]; MAD 3 ppm in feed) was 1, the mortality n ([1]; MAD 3 ppm in feed) was 0/3 and the “% efficay tot.” value ([1]; MAD 3 ppm in feed) was 44%. The “oocyst in % of inf. control ten.” value (Eimeria tenella; MAD 1 ppm in feed) was 85%, the “oocyst in % of inf. control ten.” value (Eimeria tenella; MAD 2 ppm in feed) was over 100% and the “oocyst in % of inf. control ten.” value (Eimeria tenella; MAD 3 ppm in feed) was 75%. The “oocyst in % of inf. control max.” value (Eimeria maxima; MAD 1 ppm in feed) was over 100%, the “oocyst in % of inf. control max.” value (Eimeria maxima; MAD 2 ppm in feed) was over 100% and the “oocyst in % of inf. control max.” value (Eimeria maxima; MAD 3 ppm in feed) was over 100%. The “oocyst in % of inf. control ac.” value (Eimeria acervulina; MAD 1 ppm in feed) was over 100%, the “oocyst in % of inf. control ac.” value (Eimeria acervulina; MAD 2 ppm in feed) was over 100% and the “oocyst in % of inf. control ac.” value (Eimeria acervulina; MAD 3 ppm in feed) was over 100%.
